Experimental data from patent US10611740B2, “Aryl dihydro-2H-benzo[b][1,4]oxazine sulfonamide and related compounds for use as agonists of RORγ and the treatment of disease” (Lycera Corporation, priority 2015, dated 2020).
pEC50: −log10 of the molar value.

Experiments:
RORγ-LBD = target: T1, RORγ-LBD (Homo sapiens, UniProt P51449); experiment: RORγ-Ligand Binding Domain (LBD) TR-FRET Assay; type: biochemical;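 as to TR-FRET Assay Max Response: 665/615 nm ratio relative to signal without ursolic acid or compound set at 100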
T1 construct: made in house; host or cells: SF9 cells (baculovirus)
T1 sequence (P51449 269-508 limits assumed): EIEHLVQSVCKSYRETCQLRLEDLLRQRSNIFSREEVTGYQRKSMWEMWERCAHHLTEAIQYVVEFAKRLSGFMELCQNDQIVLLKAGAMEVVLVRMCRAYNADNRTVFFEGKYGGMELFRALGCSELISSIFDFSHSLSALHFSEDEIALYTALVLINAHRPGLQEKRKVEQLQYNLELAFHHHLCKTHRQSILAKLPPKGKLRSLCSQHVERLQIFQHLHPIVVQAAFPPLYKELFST
In short: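 Lysate from SF9 cells expressing His-RORγ-LBD is diluted to about 3 nM final in 50 mM Tris pH 7.0 assay buffer. A biotin-tagged SRC1 LXXLL peptide goes in at 200 nM final, plus ursolic acid at 2 μM final. Test compounds carry 1% DMSO final; signal read by TR-FRET.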

Gal4-RORγ-LBD = target: T2, Gal4-RORγ-LBD (Homo sapiens, UniProt P51449); experiment: Gal4-RORγ Luciferase Reporter Assay in HEK-293T Cells; type: cell-based; details: HEK-293 cells, luciferase reporter, with 2 μM ursolic acid
T2 construct: expressed in transfected cells; host or cells: HEK-293 cells (pcDNA3.1neo plasmid)
T2 sequence (P51449 269-508 limits assumed): T1 sequence (P51449 269-508 limits assumed)
In short: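 In transfected HEK-293 cells (Gal4-RORγ-LBD, Gal4-luciferase), test agents with 2 μM ursolic acid were incubated overnight at 37 °C before luminescent detection. Values are relative to the ursolic-acid-free, compound-free signal (100).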

Row | SMILES | pEC50 (RORγ-LBD) | TR-FRET Assay Max Response (RORγ-LBD) | pEC50 (Gal4-RORγ-LBD) | Gal4-RORγ Assay Max Response (Gal4-RORγ-LBD)
1 | Cc1nn(C)c(C)c1-c1ccc2c(c1)N(S(=O)(=O)c1cccc(C(F)(F)F)c1)C[C@H](CCC(=O)O)O2 [Compound 4U, (S)-3-(4-((3-(trifluoromethyl)-phenyl)sulfonyl)-6-(1,3,5-trimethyl-1H-pyrazol-4-yl)-3,4-dihydro-2H-benzo[b][1,4]-oxazin-2-yl)propanoic acid] | 5.30 to 6.30 | * (The symbol “*” indicates a value in the range of 25 to 90) | 5.30 to 6.30 | * (The symbol “*” indicates a value in the range of 25 to 90)
2 | O=C(O)CC[C@H]1CN(S(=O)(=O)c2cccc(C(F)(F)F)c2)c2cc(-c3cccc4ccnn34)ccc2O1 [Compound 4V, (S)-3-(6-(pyrazolo[1,5-a]-pyridin-7-yl)-4-((3-(trifluoro-methyl)-phenyl)sulfonyl)-3,4-dihydro-2H-benzo[b][1,4]-oxazin-2-yl)propanoic acid] | > 6.30 | **** (The symbol “****” indicates a value greater than 200) | 5.30 to 6.30 | ** (The symbol “**” indicates a value in the range of greater than 90 to 150)
3 | Cn1ccc(-c2ccc3c(c2)N(S(=O)(=O)c2cccc(C(F)(F)F)c2)C[C@H](CCC(=O)O)O3)n1 [Compound 4W, (S)-3-(6-(1-methyl-1H-pyrazol-3-yl)-4-((3-(trifluoromethyl)-phenyl)sulfonyl)-3,4-dihydro-2H-benzo[b][1,4]oxazin-2-yl)propanoic acid] | 5.30 to 6.30 | **** (The symbol “****” indicates a value greater than 200) | 5.30 to 6.30 | ** (The symbol “**” indicates a value in the range of greater than 90 to 150)
4 | CN(C)c1cccc(-c2ccc3c(c2)N(S(=O)(=O)c2cccc(C(F)(F)F)c2)C[C@H](CCC(=O)O)O3)n1 [Compound 4X, (S)-3-(6-(6-(dimethylamino)-pyridin-2-yl)-4-((3-(trifluoro-methyl)phenyl)sulfonyl)-3,4-dihydro-2H-benzo[b][1,4]-oxazin-2-yl)propanoic acid] | > 6.30 | **** (The symbol “****” indicates a value greater than 200) | > 6.30 | ** (The symbol “**” indicates a value in the range of greater than 90 to 150)
5 | COc1cncc(-c2ccc3c(c2)N(S(=O)(=O)c2cccc(C(F)(F)F)c2)C[C@H](CCC(=O)O)O3)n1 [Compound 4Y, (S)-3-(6-(6-methoxypyrazin-2-yl)-4-((3-(trifluoromethyl)-phenyl)sulfonyl)-3,4-dihydro-2H-benzo[b][1,4]oxazin-2-yl)propanoic acid] | > 6.30 | **** (The symbol “****” indicates a value greater than 200) | 5.30 to 6.30 | * (The symbol “*” indicates a value in the range of 25 to 90)
6 | Cc1nnc(-c2ccc3c(c2)N(S(=O)(=O)c2cccc(C(F)(F)F)c2)C[C@H](CCC(=O)O)O3)o1 [Compound 4Z, (S)-3-(6-(5-methyl-1,3,4-oxadiazol-2-yl)-4-((3-(trifluoro-methyl)phenyl)sulfonyl)-3,4-dihydro-2H-benzo[b][1,4]-oxazin-2-yl)propanoic acid] | 5.30 to 6.30 | * (The symbol “*” indicates a value in the range of 25 to 90) | < 5.00 | –
7 | COc1cc(S(=O)(=O)N2C[C@H](CCC(=O)O)Oc3ccc(-c4cccc(Cl)c4)cc32)ccc1F [Compound 5, (S)-3-(6-(3-chlorophenyl)-4-((4-fluoro-3-methoxyphenyl)sulfonyl)-3,4-dihydro-2H-benzo[b][1,4]oxazin-2-yl)propanoic acid] | > 6.30 | *** (The symbol “***” indicates a value in the range of greater than 150 to 200) | 5.30 to 6.30 | ** (The symbol “**” indicates a value in the range of greater than 90 to 150)
8 | CCOc1nn(CC)cc1S(=O)(=O)N1C[C@H](CCC(=O)O)Oc2ccc(-c3cccc(Cl)c3)cc21 [Compound 6A, (S)-3-(6-(3-chlorophenyl)-4-((3-ethoxy-1-ethyl-1H-pyrazol-4-yl)sulfonyl)-3,4-dihydro-2H-benzo[b][1,4]oxazin-2-yl)propanoic acid] | > 6.30 | *** (The symbol “***” indicates a value in the range of greater than 150 to 200) | 5.30 to 6.30 | * (The symbol “*” indicates a value in the range of 25 to 90)
9 | O=C(O)CC[C@H]1CN(S(=O)(=O)c2cccc(Cl)c2)c2cc(-c3cccc(Cl)c3)ccc2O1 [Compound 6B, (S)-3-(6-(3-chlorophenyl)-4-((3-chlorophenyl)sulfonyl)-3,4-dihydro-2H-benzo[b][1,4]oxazin-2-yl)propanoic acid] | > 6.30 | **** (The symbol “****” indicates a value greater than 200) | 5.30 to 6.30 | ** (The symbol “**” indicates a value in the range of greater than 90 to 150)
10 | CCn1cc(S(=O)(=O)N2C[C@H](CCC(=O)O)Oc3ccc(-c4cccc(Cl)c4)cc32)c(Cl)n1 [Compound 6C, (S)-3-(4-((3-chloro-1-ethyl-1H-pyrazol-4-yl)sulfonyl)-6-(3-chlorophenyl)-3,4-dihydro-2H-benzo[b][1,4]oxazin-2-yl)propanoic acid] | > 6.30 | **** (The symbol “****” indicates a value greater than 200) | 5.30 to 6.30 | ** (The symbol “**” indicates a value in the range of greater than 90 to 150)
11 | CCOc1ncc(C(F)(F)F)cc1S(=O)(=O)N1C[C@H](CCC(=O)O)Oc2ccc(-c3cccc(Cl)c3)cc21 [Compound 6D, (S)-3-(6-(3-chlorophenyl)-4-((2-ethoxy-5-(trifluoromethyl)-pyridin-3-yl)sulfonyl)-3,4-dihydro-2H-benzo[b][1,4]-oxazin-2-yl)propanoic acid] | > 6.30 | **** (The symbol “****” indicates a value greater than 200) | 5.30 to 6.30 | ** (The symbol “**” indicates a value in the range of greater than 90 to 150)
12 | O=C(O)CC[C@H]1CN(S(=O)(=O)c2cc(C(F)(F)F)cnc2OCCO)c2cc(-c3cccc(Cl)c3)ccc2O1 [Compound 6G] | > 6.30 | **** (The symbol “****” indicates a value greater than 200) | 5.30 to 6.30 | ** (The symbol “**” indicates a value in the range of greater than 90 to 150)
13 | O=C(O)CC[C@H]1CN(S(=O)(=O)c2cccc(C3CC3)c2)c2cc(-c3cccc(Cl)c3)ccc2O1 [Compound 6H, (S)-3-(6-(3-chlorophenyl)-4-((3-cyclopropylphenyl)sulfonyl)-3,4-dihydro-2H-benzo[b][1,4]oxazin-2-yl)propanoic acid] | > 6.30 | **** (The symbol “****” indicates a value greater than 200) | > 6.30 | ** (The symbol “**” indicates a value in the range of greater than 90 to 150)
14 | Cc1c(C(F)(F)F)cccc1S(=O)(=O)N1C[C@H](CCC(=O)O)Oc2ccc(-c3cc(F)ccc3F)cc21 [Compound 6I, (S)-3-(6-(2,5-difluorophenyl)-4-((2-methyl-3-(trifluoromethyl)phenyl)-sulfonyl)-3,4-dihydro-2H-benzo[b][1,4]oxazin-2-yl)propanoic acid] | > 6.30 | *** (The symbol “***” indicates a value in the range of greater than 150 to 200) | 5.30 to 6.30 | ** (The symbol “**” indicates a value in the range of greater than 90 to 150)
15 | O=C(O)CC[C@H]1CN(S(=O)(=O)c2cc(F)cc(C(F)(F)F)c2)c2cc(-c3cc(F)ccc3F)ccc2O1 [Compound 6J, (S)-3-(6-(2,5-difluorophenyl)-4-((3-fluoro-5-(trifluoromethyl)phenyl)-sulfonyl)-3,4-dihydro-2H-benzo[b][1,4]oxazin-2-yl)propanoic acid] | > 6.30 | *** (The symbol “***” indicates a value in the range of greater than 150 to 200) | > 6.30 | ** (The symbol “**” indicates a value in the range of greater than 90 to 150)
16 | COc1cc(S(=O)(=O)N2C[C@H](CCC(=O)O)Oc3ccc(-c4cc(F)cc(F)c4Cl)cc32)ccc1F [Compound 6K, (S)-3-(6-(2-chloro-3,5-difluorophenyl)-4-((4-fluoro-3-methoxyphenyl)sulfonyl)-3,4-dihydro-2H-benzo[b][1,4]oxazin-2-yl)propanoic acid] | > 6.30 | *** (The symbol “***” indicates a value in the range of greater than 150 to 200) | > 6.30 | ** (The symbol “**” indicates a value in the range of greater than 90 to 150)
17 | O=C(O)CC[C@H]1CN(S(=O)(=O)c2cccc(OC(F)F)c2)c2cc(-c3cc(F)cc(F)c3Cl)ccc2O1 [Compound 6L, (S)-3-(6-(2-chloro-3,5-difluoro-phenyl)-4-((3-(difluoromethoxy)-phenyl)sulfonyl)-3,4-dihydro-2H-benzo[b][1,4]oxazin-2-yl)propanoic acid] | > 6.30 | *** (The symbol “***” indicates a value in the range of greater than 150 to 200) | > 6.30 | ** (The symbol “**” indicates a value in the range of greater than 90 to 150)
